Measurements as given in article PMC10385743.
Where two headings read alike, the source gives them in different places.

Experiments:
[1] = test system: HCV GT 3a (strain S52) subgenomic replicon; assay: microbe, parasite or virus in culture; format: cell-based, hepatitis C virus; details: Hepatitis C virus, GT3A, 72 h, luciferase, mean ± SD, read-out: Huh7.5-3a(S52) (HCV Replicon 3a) EC50
[2] = test system: HCV GT 4a (strain ED43) subgenomic replicon; assay: microbe, parasite or virus in culture; format: cell-based, hepatitis C virus; details: for EC50: 72 h, luciferase, mean ± SD, read-out: Huh7.5-4a(ED43) (HCV Replicon 4a) EC50
[3] = test system: YFV (strain 17D) subgenomic replicon; assay: microbe, parasite or virus in culture; format: cell-based, yellow fever virus; details: Yellow fever virus, 72 h, read-out: Huh7-YF (YFV Replicon 17D) EC50
[4] = test system: DENV serotype 2 (strain 16681) subgenomic replicon; assay: microbe, parasite or virus in culture; format: cell-based, dengue virus; details: Dengue virus, DENV2; 72 h; luciferase; mean ± SD; read-out: Huh7-D2 (DENV-2 Replicon) EC50
[5] = test system: bloodstream form T. b. brucei (strain 221); details: for SI (CC50 for L6 cells / EC50 for T. brucei): selectivity index; for increase in activity against T. brucei relative to parent compound: 38, 40, 41 versus parent 36, 42 versus parent 37
[6] = test system: bloodstream form T. b. brucei (strain 221); assay: microbe, parasite or virus in culture; details: Trypanosoma brucei, mean of triplicate experiments ± SEM; for EC50: read-out: T. brucei EC50, cultured bloodstream form; for EC90: read-out: T. brucei EC90, cultured bloodstream form
[7] = test system: T. cruzi (CL Brener strain) epimastigotes; assay: microbe, parasite or virus in culture; details: Trypanosoma cruzi; for EC50: read-out: T. cruzi EC50; for EC90: read-out: T. cruzi EC90
[8] = Cytotoxicity against cultured L6 cells (resazurin); details: rat, L6 rat skeletal myoblast cells, L6 Cells CC50, mean of triplicate experiments ± SEM
[9] = Cytotoxicity in Huh5-2 replicon cells (intracellular ATP levels); details: human
[10] = test system: bloodstream form T. b. brucei (strain 221); details: cited from earlier work
HCV GT 1b (Con1) = assay: Combinatory activity of 34 with daclatasvir (DCV) in Huh5-2 replicon cells, F-Luc activity; format: cell-based, hepatitis C virus
Experimental: The Huh5-2 replicon cell line was treated with compound 34 in the presence or absence of daclatasvir (DCV) to test its effectiveness in combination with an authorized NS5A inhibitor (DCV) (Figure 6).
Figure 6 Combinatory activity of 34 with DCV against HCV GT 1b (Con1). Huh5-2 cells were treated or not with the analog in the presence or absence of 20 pM DCV. F-Luc activity was measured and calculated as relative light units (RLU) per μg of total protein. […] CDI: coefficient of drug interaction. […] Error bars represent standard deviation (SD). TEXT PRINTED IN THE PICTURE: DCV + 34: CDI: 1.09 (1μM); CDI: 0.91 (2μM)

[11] = test system: rat skeletal myoblast L6 cells; assay: Cytotoxicity against cultured L6 cells (resazurin); details: read-out: L6 Cells CC50; mean of triplicate experiments ± SEM
[12] = test system: HCV GT1b (Con1) replicon RNA; details: Hepatitis C virus, Huh-5-2, read-out: HCV RNA EC50
HCV = test system: HCV; design: method as in doi:10.1039/C5MD00439J; details: read-out: Antiviral activity (Hepatitis C) EC50; cited from earlier work
[13] = test system: T. cruzi (CL Brener strain) epimastigotes; details: selectivity index
[14] = test system: T. cruzi (CL Brener strain) epimastigotes; design: method as in PMID 31303998; details: lead compound; cited from earlier work
[15] = test system: rat skeletal myoblast L6 cells; design: method as in PMID 31303998; details: lead compound; cited from earlier work
Huh5-2 cells = test system: Huh5-2 cells; design: method as in PMID 31303998; details: lead compound; read-out: Huh5-2 (HCV Replicon 1b) CC50; cited from earlier work
[16] = test system: HCV GT 3a (strain S52) subgenomic replicon; design: method as in PMID 31303998; details: lead compound; read-out: Huh7.5-3a(S52) (HCV Replicon 3a) EC50; cited from earlier work
[17] = test system: HCV GT 4a (strain ED43) subgenomic replicon; design: method as in PMID 31303998; details: lead compound; read-out: Huh7.5-4a(ED43) (HCV Replicon 4a) EC50; cited from earlier work
[18] = test system: DENV serotype 2 (strain 16681) subgenomic replicon; design: method as in PMID 31303998; details: lead compound; read-out: Huh7-D2 (DENV-2 Replicon) EC50; cited from earlier work

Structure (SMILES) | EC50 [1] [nM] | EC50 ([2]; Hepatitis C virus, GT4A) [nM] | EC50 [3] [µM] | EC50 [4] [µM] | SI (CC50 for L6 cells / EC50 for T. brucei) [5] | EC50 [6] [nM] | EC90 [6] [nM] | EC50 [7] [µM] | CC50 at 6 days [8] [µM] | CC50 at 72 h [9] [µM] | also measured
CN1C(=O)N(CC(=O)NO)C(=O)C12CCCCC2c1ccccc1 (stereo not shown) [Compound 39, N-Hydroxy-2-(1-methyl-2,4-dioxo-6-phenyl-1,3-diazaspiro [4.5]decan-3-yl)acetamide] | > 10000 | > 10000 | > 10 | 4.62 ± 0.39 | 150 | 1460 ± 60 | 1750 ± 20 | > 30 | 217 ± 6 | > 10 | 
O=C(CN1C(=O)CNC2(CCCCCC2)C1=O)NO [II] |  |  |  |  |  |  |  |  |  |  | EC50 ([10]; read-out: Trypanocidal activity (T. brucei) EC50): 1870 ± 80 nM
CC1CCC2(NC(=O)N(CC(=O)NO)C2=O)c2ccccc21 [Compound 34, Ν-(hydroxy)-2-((4R,4′S)/(4S,4′R)-4′-methyl-2,5-dioxo-3′,4′-dihydro-2′H-spiro[imidazolidine-4,1′-naphthalene]-1-yl)acetamide] | 630 ± 80 |  | > 10 | > 10 | 335 | 670 ± 90 | 920 ± 230 | > 30 | > 200 | > 200 | fold more active against GT 4a than lead molecule V [2]: 2.5 fold; EC50 [2]: 140 ± 10 nM; CDI (HCV GT 1b (Con1); 1 μM 34 with 20 pM DCV): 1.09; CDI (HCV GT 1b (Con1); 2 μM 34 with 20 pM DCV): 0.91; coefficient of drug interaction (CDI) (HCV GT 1b (Con1); 34 in combination with daclatasvir (DCV)): ≈ 1; CC50 [11]: 224 ± 20 µM; EC50 [12]: 726 nM
O=C1Cn2c(cc3ccccc32)C(=O)N1O [I] |  |  |  |  |  |  |  |  |  |  | EC50 (HCV): 126 ± 14.2 µM
O=C(CN1C(=O)N(Cc2ccccc2)C2(CCC(c3ccccc3)CC2)C1=O)NO (stereo not shown) [Compound 41, N-Hydroxy-2-(1-benzyl-2,4-dioxo-8-phenyl-1,3-diazaspiro [4.5]decan-3-yl)acetamide] | > 10000 | > 10000 | > 10 | > 10 | 440 | 9 ± 1 | 11 ± 1 | 0.34 ± 0.02 | 3.98 ± 0.32 | > 10 | increase in activity against T. brucei relative to parent compound [5]: 100 fold; SI (CC50 for L6 cells / EC50 for T. cruzi) [13]: 12; EC90 [7]: 0.74 ± 0.05 µM
O=C(CN1C(=O)NC2(CCCCC2c2ccccc2)C1=O)NO (stereo not shown) [Compound 37, N-Hydroxy-2-(2,4-dioxo-6-phenyl-1,3-diazaspiro [4.5]decan-3-yl) acetamide] | > 10000 | > 10000 | > 10 | > 10 | 55 | 4410 ± 220 | 5920 ± 90 | > 30 | > 200 | > 10 | T. brucei EC50 fold higher than that of 36 ([5]; 2-phenyl versus 4-phenyl cyclohexane ring): 5 fold; CC50 [11]: 246 ± 3 µM
O=C(CN1C(=O)NC2(CCCc3ccccc32)C1=O)NO (stereo not shown) [V] |  |  |  |  |  |  |  |  |  |  | EC50 ([10]; earlier lead compounds, read-out: T. brucei EC50): 710 ± 120 nM; EC90 ([10]; lead compound): 1270 ± 20 nM; SI (CC50 for L6 cells / EC50 for T. brucei) ([10]; lead compound): 590; EC50 [14]: > 30 µM; EC90 [14]: > 30 µM; CC50 [15]: 419 ± 55 µM; CC50 (Huh5-2 cells): > 200 µM; EC50 [16]: 2370 ± 170 nM; EC50 [17]: 380 ± 40 nM; EC50 [18]: 61.5 ± 3.86 µM
CN1C(=O)N(CC(=O)NO)C(=O)C12CCC(c1ccccc1)CC2 (stereo not shown) [Compound 38, N-Hydroxy-2-(1-methyl-2,4-dioxo-8-phenyl-1,3-diazaspiro [4.5]decan-3-yl)acetamide] | 630 ± 10 | 220 | > 10 | 10.2 ± 0.18 | 220 | 100 ± 10 | 140 ± 10 | 6.25 ± 0.24 | 21.7 ± 3.9 | 43.1 ± 2.11 | increase in activity against T. brucei relative to parent compound [5]: 9 fold; SI (CC50 for L6 cells / EC50 for T. cruzi) [13]: 4; EC90 [7]: 13.3 ± 0.3 µM
